Results reported in ChEMBL document CHEMBL3580533, “Antagonism/Agonism modulation to build novel antihypertensives selectively triggering i1-imidazoline receptor activation” (ACS Med Chem Lett, 2015).
Calls of active or inactive are those of the source. No cut-off for these calls is given here.

Legend:
Rattus norvegicus [1] = test: Reduction in mean arterial blood pressure in spontaneously hypertensive rat at 30 mg/kg, ip administered as single dose and measured 60 mins post dose by tail-cuff plethysmography; type: functional; conditions: 1 h
Rattus norvegicus [2] = test: Reduction in heart rate in spontaneously hypertensive rat at 30 mg/kg, ip administered as single dose and measured 60 mins post dose by tail-cuff plethysmography; type: functional; conditions: 1 h
Rattus norvegicus [3] = test: Reduction in mean arterial blood pressure in spontaneously hypertensive rat at 30 mg/kg, ip administered as single dose and measured 120 mins post dose by tail-cuff plethysmography; type: functional; conditions: 2 h
Rattus norvegicus [4] = test: Reduction in heart rate in spontaneously hypertensive rat at 30 mg/kg, ip administered as single dose and measured 30 mins post dose by tail-cuff plethysmography; type: functional; conditions: 0.5 h
Rattus norvegicus [5] = test: Reduction in mean arterial blood pressure in spontaneously hypertensive rat at 30 mg/kg, ip administered as single dose and measured 30 to 120 mins post dose pre-treated with 30 mg/kg, ip 2-(1-phenylpropan-2-yl)-4,5-dihydro-1H-imidazole by tail-cuff plethysmography; type: functional, organism-based
Nischarin = Nischarin (Rattus norvegicus, UniProt Q4G017); test: Displacement of [125I]-p-iodoclonidin from I1-imidazoline receptor in rat PC12 cell membranes; set-up: species or system PC-12
Chain of Nischarin (Q4G017 whole entry): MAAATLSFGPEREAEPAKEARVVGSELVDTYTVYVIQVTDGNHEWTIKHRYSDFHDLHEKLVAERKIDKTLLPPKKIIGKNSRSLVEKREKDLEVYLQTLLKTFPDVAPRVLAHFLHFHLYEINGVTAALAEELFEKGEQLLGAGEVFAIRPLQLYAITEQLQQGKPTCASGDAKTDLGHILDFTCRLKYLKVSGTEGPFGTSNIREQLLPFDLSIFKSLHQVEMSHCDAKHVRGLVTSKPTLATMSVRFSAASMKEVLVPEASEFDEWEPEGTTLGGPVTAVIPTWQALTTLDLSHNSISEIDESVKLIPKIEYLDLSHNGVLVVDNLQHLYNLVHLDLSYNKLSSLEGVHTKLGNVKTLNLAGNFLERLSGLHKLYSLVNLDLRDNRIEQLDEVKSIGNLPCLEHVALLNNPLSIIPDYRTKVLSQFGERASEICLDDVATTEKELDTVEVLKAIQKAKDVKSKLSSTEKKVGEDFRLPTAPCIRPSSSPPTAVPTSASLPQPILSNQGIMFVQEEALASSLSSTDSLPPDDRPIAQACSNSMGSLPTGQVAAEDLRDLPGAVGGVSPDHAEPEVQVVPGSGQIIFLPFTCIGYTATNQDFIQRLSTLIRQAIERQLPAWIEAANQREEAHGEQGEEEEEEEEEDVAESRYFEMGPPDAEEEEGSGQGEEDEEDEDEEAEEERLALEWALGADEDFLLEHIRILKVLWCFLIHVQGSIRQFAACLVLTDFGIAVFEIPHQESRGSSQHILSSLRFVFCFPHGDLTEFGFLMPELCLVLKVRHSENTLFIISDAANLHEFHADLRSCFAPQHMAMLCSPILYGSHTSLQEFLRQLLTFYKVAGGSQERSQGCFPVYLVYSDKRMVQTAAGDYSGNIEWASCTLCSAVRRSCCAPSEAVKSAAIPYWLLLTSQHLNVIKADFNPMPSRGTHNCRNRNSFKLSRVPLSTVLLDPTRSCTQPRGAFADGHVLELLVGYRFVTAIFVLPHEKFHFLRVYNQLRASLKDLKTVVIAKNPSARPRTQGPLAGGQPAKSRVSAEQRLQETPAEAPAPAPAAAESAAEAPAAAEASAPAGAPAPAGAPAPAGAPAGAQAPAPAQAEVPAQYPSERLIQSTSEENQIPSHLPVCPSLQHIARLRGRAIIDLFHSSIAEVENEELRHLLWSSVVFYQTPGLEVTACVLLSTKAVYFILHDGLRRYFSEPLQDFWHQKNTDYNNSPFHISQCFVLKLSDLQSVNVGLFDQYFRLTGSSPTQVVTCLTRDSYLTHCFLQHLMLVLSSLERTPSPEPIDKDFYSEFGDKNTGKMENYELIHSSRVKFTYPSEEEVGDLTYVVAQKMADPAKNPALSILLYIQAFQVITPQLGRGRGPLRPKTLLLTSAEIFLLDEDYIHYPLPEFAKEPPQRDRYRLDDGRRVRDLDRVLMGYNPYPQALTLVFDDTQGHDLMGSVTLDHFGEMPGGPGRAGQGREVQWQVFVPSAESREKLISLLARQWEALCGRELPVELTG

[6] = target: T1, Adrenergic receptor alpha-2 (Rattus norvegicus, UniProt P22086+P19328+P22909); test: Displacement of [3H]-clonidine from alpha2 adrenoreceptor in rat cortex membranes; type: cell membranes
T1 sequence (P22086 whole entry): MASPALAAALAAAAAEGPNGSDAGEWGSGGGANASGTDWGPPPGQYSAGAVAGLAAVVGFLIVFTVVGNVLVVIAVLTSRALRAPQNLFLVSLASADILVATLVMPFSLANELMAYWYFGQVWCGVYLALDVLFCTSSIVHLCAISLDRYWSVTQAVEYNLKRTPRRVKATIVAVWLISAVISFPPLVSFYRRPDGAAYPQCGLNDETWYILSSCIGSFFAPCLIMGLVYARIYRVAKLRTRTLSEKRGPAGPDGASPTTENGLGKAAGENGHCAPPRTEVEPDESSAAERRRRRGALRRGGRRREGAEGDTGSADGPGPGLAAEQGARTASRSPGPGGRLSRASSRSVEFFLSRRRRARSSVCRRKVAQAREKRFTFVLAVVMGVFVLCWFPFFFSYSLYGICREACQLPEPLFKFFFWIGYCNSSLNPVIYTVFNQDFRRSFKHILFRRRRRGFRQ
T1 sequence (P19328 whole entry): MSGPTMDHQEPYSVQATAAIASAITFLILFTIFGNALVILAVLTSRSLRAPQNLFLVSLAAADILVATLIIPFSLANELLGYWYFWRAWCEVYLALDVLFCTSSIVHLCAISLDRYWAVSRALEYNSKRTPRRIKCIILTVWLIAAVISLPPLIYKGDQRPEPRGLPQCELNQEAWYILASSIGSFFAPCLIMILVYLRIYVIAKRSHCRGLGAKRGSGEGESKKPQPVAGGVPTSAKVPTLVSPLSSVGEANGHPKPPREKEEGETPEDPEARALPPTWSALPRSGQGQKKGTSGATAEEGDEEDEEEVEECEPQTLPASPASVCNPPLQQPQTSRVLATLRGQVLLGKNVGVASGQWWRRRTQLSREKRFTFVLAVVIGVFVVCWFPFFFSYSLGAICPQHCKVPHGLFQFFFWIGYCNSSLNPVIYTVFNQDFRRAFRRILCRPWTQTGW
T1 sequence (P22909 whole entry): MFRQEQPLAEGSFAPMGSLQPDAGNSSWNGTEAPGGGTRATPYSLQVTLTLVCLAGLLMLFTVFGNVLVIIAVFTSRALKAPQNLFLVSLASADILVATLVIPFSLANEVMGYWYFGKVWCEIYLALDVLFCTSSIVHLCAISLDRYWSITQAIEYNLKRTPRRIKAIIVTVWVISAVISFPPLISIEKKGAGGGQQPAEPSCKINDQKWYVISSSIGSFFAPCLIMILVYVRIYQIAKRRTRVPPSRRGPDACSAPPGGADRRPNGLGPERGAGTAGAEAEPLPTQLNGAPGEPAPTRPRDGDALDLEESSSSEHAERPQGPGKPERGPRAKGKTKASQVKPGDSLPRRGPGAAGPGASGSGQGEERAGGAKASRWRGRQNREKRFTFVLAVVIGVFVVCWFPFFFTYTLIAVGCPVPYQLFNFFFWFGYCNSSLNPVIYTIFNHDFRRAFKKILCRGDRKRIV

Rattus norvegicus [7] = test: Reduction in heart rate in spontaneously hypertensive rat at 30 mg/kg, ip administered as single dose and measured 120 mins post dose by tail-cuff plethysmography; type: functional; conditions: 2 h
Rattus norvegicus [8] = test: Reduction in mean arterial blood pressure in spontaneously hypertensive rat at 30 mg/kg, ip administered as single dose and measured 30 mins post dose by tail-cuff plethysmography; type: functional; conditions: 0.5 h
PC-12 = test: Selectivity ratio, […]-imidazoline receptor in rat PC12 cell membranes to […] adrenoreceptor in rat cortex membranes; type: cell-based

Compound | Ki (Nischarin) [nM] | pKi [6] | inhibition in vivo at 30 mg/kg (Rattus norvegicus [1]) [%] | inhibition in vivo at 30 mg/kg (Rattus norvegicus [2]) [%] | inhibition in vivo at 30 mg/kg (Rattus norvegicus [3]) [%] | inhibition in vivo at 30 mg/kg (Rattus norvegicus [4]) [%] | inhibition (Rattus norvegicus [5]) | inhibition in vivo at 30 mg/kg (Rattus norvegicus [7]) [%] | inhibition in vivo at 30 mg/kg (Rattus norvegicus [8]) [%] | Ratio (PC-12)
Cc1ccccc1CC(C)C1=NCCN1 (stereo not drawn) | 23.4 | < 6 | 29.7 | 13.6 | 53.1 | 11.7 | inactive | 7.66 | 32.4 | 
CC(Oc1ccccc1-c1ccccc1)C1=NCCN1 (stereo not drawn) [BIPHENYLINE] | 126 |  |  |  |  |  |  |  |  | 
CC(Cc1ccccc1-c1ccccc1)C1=NCCN1 (stereo not drawn) | 155 | 4.1 | 25.4 | 13.8 | 34.9 | 14.2 |  | 11.9 | 27.6 | 513
CC(Cc1ccccc1-c1cccc(O)c1)C1=NCCN1 (stereo not drawn) | > 1000 | < 6 |  |  |  |  |  |  |  | 
Cc1ccccc1C[C@@H](C)C1=NCCN1 | 1050 | < 6 | 12.7 | 4.18 | 3.01 | 9.17 |  | 0 | 8.67 | 
C[C@H](Cc1ccccc1-c1ccccc1)C1=NCCN1 | 2240 |  |  |  |  |  |  |  |  | 
CC(Oc1ccccc1)C1=NCCN1 (stereo not drawn) | 309 |  |  |  |  |  |  |  |  | 

Now from value to compound, other results behind:

Ki (Nischarin) [nM] | pKi [6] | Compound | inhibition in vivo at 30 mg/kg (Rattus norvegicus [1]) [%] | inhibition in vivo at 30 mg/kg (Rattus norvegicus [2]) [%] | inhibition in vivo at 30 mg/kg (Rattus norvegicus [3]) [%] | inhibition in vivo at 30 mg/kg (Rattus norvegicus [4]) [%] | inhibition (Rattus norvegicus [5]) | inhibition in vivo at 30 mg/kg (Rattus norvegicus [7]) [%] | inhibition in vivo at 30 mg/kg (Rattus norvegicus [8]) [%] | Ratio (PC-12)
63.1 | < 6 | CC(Cc1ccccc1-c1ccsc1)C1=NCCN1 (stereo not drawn) | 35.1 | 19.7 | 10.8 | 26.4 |  | 11.2 | 24.8 | 
97.7 |  | C[C@@H](Cc1ccccc1-c1ccccc1)C1=NCCN1 |  |  |  |  |  |  |  | 
> 1000 | < 6 | CC(Cc1ccccc1-c1cccnc1)C1=NCCN1 (stereo not drawn) |  |  |  |  |  |  |  | 
195 | < 6 | CC(Cc1ccccc1Cl)C1=NCCN1 (stereo not drawn) | 31.4 | 11.6 | 32.4 | 11.1 |  | 8.02 | 37.8 | 
13.2 | < 6 | Cc1ccccc1C[C@H](C)C1=NCCN1 | 26 | 11.1 | 7.85 | 12 |  | 5.89 | 34.4 | 
